Experimental findings from ChEMBL document CHEMBL1158870, “Antitumor agents. 180. Chemical Studies and cytotoxic evaluation of cumingianosides and cumindysoside A, antileukemic triterpene glucosides with a 14,18-cycloapotirucallane skeleton” (1997) are described below.

Common to all, as to format: functional
Test [1] can be described thus: Cytotoxicity against human renal cancer cells by SRB assay. Conditions: Cancer cell lines. (In general: The SRB assay estimates cell density from bound dye.)
In a further test the test system is NSCLC. In words: Cytotoxicity against human NSCLC cells by SRB assay.
A further test relates to KM12. Put plainly: Cytotoxicity against human KM12 cells by SRB assay.
Test [2] in a line: Cytotoxicity against human Colon cancer cells by SRB assay. To be noted: Cancer cell lines.
For a further test, the system named is HCC 2998. Put plainly: Cytotoxicity against human HCC2998 cells by SRB assay.
The next test relates to COLO 205. Put plainly: Cytotoxicity against human COLO205 cells by SRB assay.
Another test concerns Leukemia cell. In words: Cytotoxicity against human Leukemia cells by SRB assay.
A short description of test [3]: Cytotoxicity against human ovarian cancer cells by SRB assay. Conditions: Cancer cell lines.
Test [4] is described as follows: Cytotoxicity against human CNS cancer cells by SRB assay. To be noted: Cancer cell lines.
Test [5] can be described thus: Cytotoxicity against human melanoma cells by SRB assay. Conditions: Melanoma cell.
In the next test the test system is HCT-116. In words: Cytotoxicity against human HCT116 cells by SRB assay.
The subject of another test is HT-29. Put plainly: Cytotoxicity against human HT29 cells by SRB assay.
In the next test the test system is SW-620. Put plainly: Cytotoxicity against human SW620 cells by SRB assay.
The test system of another test is HCT-15. Put plainly: Cytotoxicity against human HCT15 cells by SRB assay.

`C=C(C=O)[C@H](C)[C@@H]1CC[C@]23C[C@]12CC[C@@H]1[C@@]2(C)CC[C@@H](OC(C)=O)C(C)(C)[C@@H]2C[C@@H](O[C@@H]2O[C@H](COC(C)=O)[C@@H](O)[C@H](O)[C@H]2O)[C@]13C` [CUMINDYSODIDE A]: the TGI (commonly the concentration at which net growth stops) is 10.8 µM in test [1]; 12.5 µM with NSCLC; 9.5 µM in the test on KM12; 5 µM in [2]; 1.4 µM with HCC 2998; 1.4 µM with COLO 205. Besides, the TGI in the test on Leukemia cell stood at 4 µM; in [3], 10.4 µM; in test [4], 1.4 µM; in test [5], 6.9 µM; in the test on HCT-116, 1.4 µM; in the test on HT-29, 11.9 µM. Besides, the results for the concentration for total growth inhibition (TGI) in the test with SW-620 and with HCT-15 were 1.4 µM and 7.5 µM, respectively.

Consider `CC(=O)OC[C@H]1O[C@@H](O[C@@H]2C[C@H]3C(C)(C)[C@H](OC(C)=O)CC[C@]3(C)[C@H]3CC[C@]45C[C@]4(CC[C@H]5[C@@H](C)C[C@@H](O)[C@H](O)C(C)(C)O)[C@@]32C)[C@H](O)[C@@H](O)[C@@H]1O` [CUMINGIANOSIDE A], for which the TGI in test [1] turned out to be 13.5 µM; in the test on NSCLC, 13.1 µM; in the test on KM12, 14.2 µM; in test [2], 13.9 µM; in the test with HCC 2998, 12.9 µM; in the test with COLO 205 it was 14 µM. Moreover, the total growth inhibition concentration (TGI) turned out to be 18.5 µM in the test with Leukemia cell; 13.6 µM in [3]; 13.3 µM in [4]; 13.7 µM in test [5]; 13.8 µM with HCT-116; 14.3 µM in the test on HT-29. Also, the TGI in the test on SW-620 was 14.4 µM; in the test on HCT-15, 13.9 µM.

For `COC(C)(C)[C@@H](O)[C@H](O)C[C@H](C)[C@@H]1CC[C@]23C[C@]12CC[C@@H]1[C@@]2(C)CC[C@@H](OC(C)=O)C(C)(C)[C@@H]2C[C@@H](O[C@@H]2O[C@H](COC(C)=O)[C@@H](O)[C@H](O)[C@H]2O)[C@]13C` [CUMINGIANOSIDE C], the TGI in test [1] was 13.2 µM; in the test on NSCLC, 12.4 µM; with KM12 it was 7.6 µM; in [2], 7.9 µM; in the test on HCC 2998, 4.9 µM; with COLO 205 it was 11.3 µM. Further, the TGI in the test on Leukemia cell amounted to 11.3 µM; in test [3], 12 µM; in test [4], 11.6 µM; in test [5], 12.6 µM; with HCT-116, 8.7 µM; in the test with HT-29 it was 2.5 µM. For the same molecule, the figures for the TGI in the test with SW-620 and with HCT-15 were 13.7 µM and 6.3 µM, respectively.

Regarding `C=C(C)[C@@H](O)[C@H](O)C[C@H](C)[C@@H]1CC[C@]23C[C@]12CC[C@@H]1[C@@]2(C)CC[C@@H](OC(C)=O)C(C)(C)[C@@H]2C[C@@H](O[C@@H]2O[C@H](COC(C)=O)[C@@H](O)[C@H](O)[C@H]2O)[C@]13C` [CUMINGIANOSIDE D], the TGI was 12.7 µM in test [1]; 11.7 µM with NSCLC; 11.3 µM with KM12; 11 µM in test [2]; 12.4 µM with HCC 2998; 12.6 µM in the test with COLO 205. For the same molecule, the TGI was 8.2 µM with Leukemia cell; 12.7 µM in [3]; 10.9 µM in test [4]; 12.2 µM in test [5]; 9.27 µM in the test with HCT-116; 8.77 µM in the test on HT-29. For the same molecule, the TGI in the test on SW-620 is 12 µM; with HCT-15 it was 10.4 µM.

Turning to `CC(=O)OC[C@H]1O[C@@H](O[C@@H]2C[C@H]3C(C)(C)[C@H](OC(C)=O)CC[C@]3(C)[C@H]3CC[C@]45C[C@]4(CC[C@H]5[C@@H](C)C[C@@H](O)[C@@H]4OC4(C)C)[C@@]32C)[C@H](O)[C@@H](O)[C@@H]1O` [CUMINGIANOSIDE E], the TGI in test [1] was found to be 10 µM; in the test with NSCLC, 14.5 µM; with KM12, 3.8 µM; in test [2], 4.2 µM; in the test with HCC 2998, 2.7 µM; in the test on COLO 205, 1.8 µM. For the same molecule, the concentration for total growth inhibition (TGI) amounted to 1.8 µM with Leukemia cell; 5.9 µM in test [3]; 7.9 µM in test [4]; 15.4 µM in [5]; 3.5 µM in the test on HCT-116; 1.7 µM in the test with HT-29. Moreover, the figures for the total growth inhibition concentration (TGI) in the test on SW-620 and in the test with HCT-15 were 10 µM and 6 µM, respectively.
